Laboratory results from PubChem BioAssay (NCI).
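Protocol summary: plate cells (96-well), add compound at 5 concentrations, incubate 48 h, interpolate endpoints linearly. GI50 marks 50% less growth. TGI marks complete inhibition of growth.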

Experiments:
Test in all cases: NCI tumour cell line growth inhibition, 48 h
786-0 renal = tested on: 786-0 renal
A498 renal = tested on: A498 renal
A549 NSCLC = tested on: A549 NSCLC
ACHN renal = tested on: ACHN renal
BT-549 breast = tested on: BT-549 breast
CAKI-1 renal = tested on: CAKI-1 renal
CCRF-CEM leukemia = tested on: CCRF-CEM leukemia
COLO 205 colon = tested on: COLO 205 colon
DU-145 prostate = tested on: DU-145 prostate
EKVX NSCLC = tested on: EKVX NSCLC
HCC-2998 colon = tested on: HCC-2998 colon
HCT-116 colon = tested on: HCT-116 colon
HCT-15 colon = tested on: HCT-15 colon
HL-60(TB) leukemia = tested on: HL-60(TB) leukemia
HOP-62 NSCLC = tested on: HOP-62 NSCLC
HOP-92 NSCLC = tested on: HOP-92 NSCLC
HS 578T breast = tested on: HS 578T breast
HT29 colon = tested on: HT29 colon
IGROV1 ovarian = tested on: IGROV1 ovarian
KM12 colon = tested on: KM12 colon
LOX IMVI melanoma = tested on: LOX IMVI melanoma
M14 melanoma = tested on: M14 melanoma
MALME-3M melanoma = tested on: MALME-3M melanoma
MCF7 breast = tested on: MCF7 breast
MDA-MB-231 breast = tested on: MDA-MB-231 breast
MDA-MB-435 = tested on: MDA-MB-435
MOLT-4 leukemia = tested on: MOLT-4 leukemia
NCI-H226 lung = tested on: NCI-H226 lung
NCI-H23 lung = tested on: NCI-H23 lung
NCI-H460 lung = tested on: NCI-H460 lung
NCI-H522 lung = tested on: NCI-H522 lung
NCI/ADR-RES ovarian = tested on: NCI/ADR-RES ovarian
OVCAR-3 ovarian = tested on: OVCAR-3 ovarian
OVCAR-4 ovarian = tested on: OVCAR-4 ovarian
OVCAR-5 ovarian = tested on: OVCAR-5 ovarian
OVCAR-8 ovarian = tested on: OVCAR-8 ovarian
PC-3 prostate = tested on: PC-3 prostate
RPMI-8226 leukemia = tested on: RPMI-8226 leukemia
RXF 393 renal = tested on: RXF 393 renal
SF-268 CNS = tested on: SF-268 CNS
SF-295 CNS = tested on: SF-295 CNS
SF-539 CNS = tested on: SF-539 CNS
SK-MEL-2 melanoma = tested on: SK-MEL-2 melanoma
SK-MEL-28 melanoma = tested on: SK-MEL-28 melanoma
SK-MEL-5 melanoma = tested on: SK-MEL-5 melanoma
SN12C renal = tested on: SN12C renal
SNB-75 CNS = tested on: SNB-75 CNS
SW-620 colon = tested on: SW-620 colon
T-47D breast = tested on: T-47D breast
U251 CNS = tested on: U251 CNS
UACC-257 melanoma = tested on: UACC-257 melanoma
UACC-62 melanoma = tested on: UACC-62 melanoma
UO-31 renal = tested on: UO-31 renal

## Cc1cccc2c(=O)c3c(sc12)c(NCCCNCCO)nc1ccccc13
786-0 renal
  GI50: 1750 nM
  TGI: 3400 nM
A498 renal
  GI50: 1300 nM
  TGI: 2830 nM
A549 NSCLC
  GI50: 1060 nM
  TGI: 2640 nM
ACHN renal
  GI50: 1490 nM
  TGI: 2810 nM
BT-549 breast
  GI50: 1850 nM
  TGI: 4270 nM
CAKI-1 renal
  GI50: 1310 nM
  TGI: 2670 nM
CCRF-CEM leukemia
  GI50: 1570 nM
  TGI: 3310 nM
COLO 205 colon
  GI50: 1610 nM
  TGI: 3240 nM
DU-145 prostate
  GI50: 1570 nM
  TGI: 2960 nM
EKVX NSCLC
  GI50: 1570 nM
  TGI: 3000 nM
HCC-2998 colon
  GI50: 1580 nM
  TGI: 3060 nM
HCT-116 colon
  GI50: 1510 nM
  TGI: 3030 nM
HCT-15 colon
  GI50: 1510 nM
  TGI: 2960 nM
HL-60(TB) leukemia
  GI50: 1820 nM
  TGI: 3490 nM
HOP-62 NSCLC
  GI50: 1220 nM
  TGI: 2750 nM
HOP-92 NSCLC
  GI50: 1210 nM
  TGI: 3240 nM
HS 578T breast
  GI50: 1630 nM
  TGI: 3620 nM
HT29 colon
  GI50: 1570 nM
  TGI: 3200 nM
IGROV1 ovarian
  GI50: 1340 nM
  TGI: 2960 nM
KM12 colon
  GI50: 1720 nM
  TGI: 3250 nM
LOX IMVI melanoma
  GI50: 1380 nM
  TGI: 2760 nM
M14 melanoma
  GI50: 1810 nM
  TGI: 3560 nM
MALME-3M melanoma
  GI50: 1810 nM
  TGI: 3500 nM
MCF7 breast
  GI50: 1330 nM
  TGI: 2870 nM
MDA-MB-231 breast
  GI50: 1600 nM
  TGI: 3130 nM
MDA-MB-435
  GI50: 1740 nM
  TGI: 3180 nM
MOLT-4 leukemia
  GI50: 1130 nM
  TGI: 2620 nM
NCI-H226 lung
  GI50: 1600 nM
  TGI: 3330 nM
NCI-H23 lung
  GI50: 1660 nM
  TGI: 3130 nM
NCI-H460 lung
  GI50: 1150 nM
  TGI: 2550 nM
NCI-H522 lung
  GI50: 1650 nM
  TGI: 3540 nM
NCI/ADR-RES ovarian
  GI50: 1730 nM
  TGI: 3260 nM
OVCAR-3 ovarian
  GI50: 1740 nM
  TGI: 3260 nM
OVCAR-4 ovarian
  GI50: 1800 nM
  TGI: 3440 nM
OVCAR-5 ovarian
  GI50: 1600 nM
  TGI: 3020 nM
OVCAR-8 ovarian
  GI50: 1710 nM
  TGI: 3370 nM
PC-3 prostate
  GI50: 1290 nM
  TGI: 2750 nM
RPMI-8226 leukemia
  GI50: 1810 nM
  TGI: 3810 nM
RXF 393 renal
  GI50: 1510 nM
  TGI: 2890 nM
SF-268 CNS
  GI50: 1400 nM
  TGI: 2970 nM
SF-295 CNS
  GI50: 1720 nM
  TGI: 3180 nM
SF-539 CNS
  GI50: 1710 nM
  TGI: 3090 nM
SK-MEL-2 melanoma
  GI50: 1750 nM
  TGI: 3340 nM
SK-MEL-28 melanoma
  GI50: 1730 nM
  TGI: 3180 nM
SK-MEL-5 melanoma
  GI50: 1780 nM
  TGI: 3290 nM
SN12C renal
  GI50: 1560 nM
  TGI: 3120 nM
SNB-75 CNS
  GI50: 1130 nM
  TGI: 2350 nM
SW-620 colon
  GI50: 1430 nM
  TGI: 2990 nM
T-47D breast
  GI50: 1570 nM
  TGI: 3500 nM
U251 CNS
  GI50: 1500 nM
  TGI: 2960 nM
UACC-257 melanoma
  GI50: 1860 nM
  TGI: 3540 nM
UACC-62 melanoma
  GI50: 1670 nM
  TGI: 3170 nM
UO-31 renal
  GI50: 1190 nM
  TGI: 2550 nM
